Assay: Ki apparent against Clostridium perfringens neuraminidase was determined
Conditions: read-out: Ki app

## CC(=O)NC1C(O)CC(Oc2ccccc2C(F)F)(C(=O)O)OC1[C@H](O)[C@H](O)CO (stereo partly specified)
  Ki: 150 µM

From ChEMBL document CHEMBL1126357, “Synthesis of sodium salt of ortho-(difluoromethyl)phenyl--ketoside of N-acetylneuraminic acid : a mechanism-based inhibitor of Clostridium perfringens neuraminidase” (Bioorg Med Chem Lett, 1992)
